Target: T1, RARγ (Homo sapiens, UniProt P13631)
T1 sequence (P13631 185-419 limits assumed): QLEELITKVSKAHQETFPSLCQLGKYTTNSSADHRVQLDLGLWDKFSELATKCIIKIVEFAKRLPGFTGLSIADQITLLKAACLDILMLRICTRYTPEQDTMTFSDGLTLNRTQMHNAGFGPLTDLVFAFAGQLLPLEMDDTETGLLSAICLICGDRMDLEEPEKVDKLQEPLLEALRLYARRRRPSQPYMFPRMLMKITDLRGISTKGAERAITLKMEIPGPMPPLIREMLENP
Experiment: Gal4-RARγ-LBD UAS-luciferase reporter in HEK293T, activation at […]
Type: cell-based
Settings: hek293t cells

## CC1=C(/C=C/C(C)=C/C=C/C(C)=C/C(=O)O)C(C)(C)CCC1 [ATRA, all-trans retinoic acid]
  Gal4-RARγ-LBD UAS-luciferase reporter in HEK293T, activation at 1 nM (2.1 fold): 2.1 fold

From article PMC3117942 (2011)
